# According to patent US9109043B2 (Tokyo Institute of Technology, priority 2010, dated 2015):
# “Also recorded” adds a separate entry of the source. Like-named read-outs stand apart in the source and are kept apart here.
# Tests used:
# [1] = target: T1, insulin secretion regulation factor (ATIS1) (Mus musculus, UniProt Q6P5E4); test: Release of radiolabelled ATIS1 from arginine-immobilized agarose by amino acids and sugars; format: binding; conditions: silver stained gel, FIG. 8A
# T1 construct: made in house; host or cells: cell-free: TNT Quick coupled transcription/translation system (Promega)
# T1 sequence (Q6P5E4 43-1551): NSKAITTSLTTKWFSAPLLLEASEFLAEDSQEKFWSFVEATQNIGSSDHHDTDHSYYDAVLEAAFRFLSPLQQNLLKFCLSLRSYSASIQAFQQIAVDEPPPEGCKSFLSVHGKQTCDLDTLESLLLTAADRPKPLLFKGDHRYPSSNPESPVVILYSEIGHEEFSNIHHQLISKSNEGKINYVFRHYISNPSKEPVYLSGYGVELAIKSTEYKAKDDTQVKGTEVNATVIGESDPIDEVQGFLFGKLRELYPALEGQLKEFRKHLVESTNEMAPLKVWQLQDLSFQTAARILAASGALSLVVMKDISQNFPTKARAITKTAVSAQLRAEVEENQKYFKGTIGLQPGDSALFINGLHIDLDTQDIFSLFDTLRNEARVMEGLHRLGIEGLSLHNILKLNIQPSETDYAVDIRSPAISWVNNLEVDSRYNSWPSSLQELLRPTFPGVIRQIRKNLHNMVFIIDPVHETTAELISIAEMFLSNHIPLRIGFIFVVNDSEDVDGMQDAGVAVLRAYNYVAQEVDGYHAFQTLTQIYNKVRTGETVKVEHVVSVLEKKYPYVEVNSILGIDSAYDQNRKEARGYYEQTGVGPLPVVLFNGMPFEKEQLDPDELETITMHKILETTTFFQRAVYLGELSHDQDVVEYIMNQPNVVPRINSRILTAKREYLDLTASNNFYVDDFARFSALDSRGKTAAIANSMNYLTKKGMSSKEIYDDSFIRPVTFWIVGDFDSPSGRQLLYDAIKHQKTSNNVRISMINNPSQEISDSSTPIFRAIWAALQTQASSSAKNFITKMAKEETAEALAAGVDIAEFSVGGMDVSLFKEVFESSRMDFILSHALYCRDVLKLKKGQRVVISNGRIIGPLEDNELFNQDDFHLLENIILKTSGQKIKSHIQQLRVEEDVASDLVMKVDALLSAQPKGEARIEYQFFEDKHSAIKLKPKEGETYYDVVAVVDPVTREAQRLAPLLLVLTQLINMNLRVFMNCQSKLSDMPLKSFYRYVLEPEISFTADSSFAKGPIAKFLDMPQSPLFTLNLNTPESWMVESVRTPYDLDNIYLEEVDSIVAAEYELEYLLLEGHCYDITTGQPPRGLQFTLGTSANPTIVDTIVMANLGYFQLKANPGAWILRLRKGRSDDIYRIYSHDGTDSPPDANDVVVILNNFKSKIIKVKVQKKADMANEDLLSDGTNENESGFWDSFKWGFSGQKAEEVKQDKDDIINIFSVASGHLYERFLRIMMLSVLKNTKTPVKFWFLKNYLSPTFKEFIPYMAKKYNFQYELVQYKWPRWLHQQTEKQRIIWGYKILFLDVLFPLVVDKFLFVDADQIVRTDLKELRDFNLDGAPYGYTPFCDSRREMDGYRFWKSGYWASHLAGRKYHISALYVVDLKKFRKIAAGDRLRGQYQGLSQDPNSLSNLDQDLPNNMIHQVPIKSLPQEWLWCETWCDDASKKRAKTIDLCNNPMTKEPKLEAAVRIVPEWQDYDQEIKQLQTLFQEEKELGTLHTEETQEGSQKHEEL
# [2] = test system: NIT-1 cells in which insulin secretion regulation factor was forcibly expressed; test: Insulin secretion by NIT-1 cells with forced expression of insulin secretion regulation factor (ELISA); format: cell-based, mouse
# wild type NIT-1 cells = test: Arginine-induced insulin secretion by wild type NIT-1 cells (ELISA); format: cell-based, mouse; conditions: arginine 0.1-20 mM, 10 minutes, FIG. 4
# [3] = target: T1, insulin secretion regulation factor (ATIS1); test: Release of radiolabelled ATIS1 from insulin-immobilized agarose by test substance; format: binding
# [4] = test system: transformed cultured cells secreting fluorescently labeled insulin; test: Fluorescence microscopy of transformed cultured cells secreting fluorescently labeled insulin; format: cell-based; conditions: arginine 10 mM, 10 and 60 seconds after administration and thereafter, data not shown
# Description: Thus, transformed cultured cells were prepared so as to secrete fluorescently labeled insulin. Using the cells, it was possible to observe insulin secretion by arginine addition and temporal changes in the intracellular localization of insulin with a fluorescent microscope. […] This experimental system can also be applied to the screening of a candidate substance, other than arginine, that promotes insulin secretion.
# [5] = target: T2, insulin secretion regulation factor (Mus musculus, UniProt Q6P5E4); test: Competitive inhibition of radiolabelled arginine binding to insulin secretion regulation factor; design: made in house; host or cells: Escherichia coli; conditions: increasing concentration of cold competitor, FIG. 2B, FIG. 3A
# Target sequence in this assay (Q6P5E4 43-1551): as above
# [6] = target: T2, insulin secretion regulation factor; test: Disconnection of insulin from insulin secretion regulation factor by arginine; format: binding; design: made in house; host or cells: Escherichia coli; conditions: depending on amount of arginine added, FIG. 3C
# Target sequence in this assay (Q6P5E4 43-1551): as above
# [7] = target: T2, insulin secretion regulation factor; test: Partial protease digestion of radiolabelled insulin secretion regulation factor in presence of amino acid; format: binding; design: made in house; host or cells: cell-free: TNT Quick coupled transcription/translation system (Promega); conditions: 100 μM arginine, on ice 10 minutes, vs absence, phenylalanine or leucine
# Target sequence in this assay (Q6P5E4 whole entry): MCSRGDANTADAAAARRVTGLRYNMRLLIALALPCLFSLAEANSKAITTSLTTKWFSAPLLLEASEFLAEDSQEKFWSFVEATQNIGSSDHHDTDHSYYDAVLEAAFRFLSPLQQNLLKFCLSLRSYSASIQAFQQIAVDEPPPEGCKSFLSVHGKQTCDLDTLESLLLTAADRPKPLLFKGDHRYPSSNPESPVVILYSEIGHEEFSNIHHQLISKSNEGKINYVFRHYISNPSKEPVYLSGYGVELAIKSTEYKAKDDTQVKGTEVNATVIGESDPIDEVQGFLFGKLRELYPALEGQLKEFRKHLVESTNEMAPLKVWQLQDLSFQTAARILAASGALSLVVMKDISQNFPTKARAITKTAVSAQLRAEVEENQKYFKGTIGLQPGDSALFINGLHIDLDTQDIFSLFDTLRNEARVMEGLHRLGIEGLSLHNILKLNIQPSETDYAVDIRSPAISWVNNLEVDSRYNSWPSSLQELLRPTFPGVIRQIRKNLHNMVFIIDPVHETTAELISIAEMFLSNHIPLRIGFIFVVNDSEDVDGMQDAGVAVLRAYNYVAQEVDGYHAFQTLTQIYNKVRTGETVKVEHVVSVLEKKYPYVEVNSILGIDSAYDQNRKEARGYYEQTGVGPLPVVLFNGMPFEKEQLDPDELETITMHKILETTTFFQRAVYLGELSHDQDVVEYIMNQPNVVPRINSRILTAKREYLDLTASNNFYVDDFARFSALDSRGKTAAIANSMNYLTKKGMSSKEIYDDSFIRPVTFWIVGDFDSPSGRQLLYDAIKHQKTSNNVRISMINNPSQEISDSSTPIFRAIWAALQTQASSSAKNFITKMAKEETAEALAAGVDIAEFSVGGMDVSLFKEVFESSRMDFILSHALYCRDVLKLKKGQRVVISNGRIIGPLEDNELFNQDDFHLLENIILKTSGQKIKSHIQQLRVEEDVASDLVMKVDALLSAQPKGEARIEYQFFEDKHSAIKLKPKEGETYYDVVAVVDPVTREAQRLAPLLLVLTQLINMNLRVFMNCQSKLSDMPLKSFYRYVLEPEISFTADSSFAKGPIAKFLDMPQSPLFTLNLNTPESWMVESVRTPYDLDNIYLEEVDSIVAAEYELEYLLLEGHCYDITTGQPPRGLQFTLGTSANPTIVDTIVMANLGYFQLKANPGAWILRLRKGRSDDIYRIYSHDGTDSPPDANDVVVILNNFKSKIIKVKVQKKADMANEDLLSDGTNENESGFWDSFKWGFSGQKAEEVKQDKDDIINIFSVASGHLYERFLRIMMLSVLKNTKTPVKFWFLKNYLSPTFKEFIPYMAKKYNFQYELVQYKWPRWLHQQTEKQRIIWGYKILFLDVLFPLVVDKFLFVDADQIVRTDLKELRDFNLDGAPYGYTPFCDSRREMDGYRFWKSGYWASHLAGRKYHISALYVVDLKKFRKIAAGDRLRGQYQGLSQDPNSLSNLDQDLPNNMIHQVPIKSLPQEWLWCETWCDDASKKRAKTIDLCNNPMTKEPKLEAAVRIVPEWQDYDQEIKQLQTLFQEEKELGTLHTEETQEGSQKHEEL
structure (smiles),measurement,setting,value
"N[C@@H](Cc1ccccc1)C(=O)O [Phenylalanine, phenylalanine]",interaction (binding) with insulin secretion regulation factor ATIS1,[1],did not bind to ATIS1
N=C(N)NCCC[C@H](N)C(=O)O [arginine],amount of insulin secreted per unit time,[2],about 2 pg/cell/min
same,arginine-induced insulin secretion,wild type NIT-1 cells,"depending on arginine concentration, insulin secretion is promoted"
same,competition with insulin for insulin secretion regulation factor,[3],competes with insulin
same,interaction (binding) with insulin secretion regulation factor ATIS1,[1],interacted with the insulin secretion regulation factor
same,intracellular localization and secretion of fluorescently labeled insulin,[4],being extracellularly secreted thereafter resulting in the disappearance of fluorescence
same,radiolabelled arginine disconnected from insulin secretion regulation factor,[5],the radiolabelled arginine that had been bound was disconnected from insulin secretion regulation factor; also recorded: the amount of disconnected radiolabelled arginine increased
same,insulin disconnected from insulin secretion regulation factor,[6],the amount of disconnected insulin increases
same,resistance of insulin secretion regulation factor to chymotrypsin partial digestion,[7],significant resistance to chymotrypsin partial digestion
same,resistance of insulin secretion regulation factor to trypsin partial digestion,[7]; FIG. 2C,significant resistance to trypsin partial digestion
NC(=O)NCCC[C@H](N)C(=O)O [citrulline],interaction (binding) with insulin secretion regulation factor ATIS1,[1],did not exhibit the ATIS1 binding activity
CC(C)=CCc1cc(/C=C/C(=O)O)ccc1O [drupanin],amount of insulin secreted per unit time,"[2]; 10 mM substance, cultured 10 minutes, FIG. 6A",about 2 pg/cell/min
same,competition with insulin for insulin secretion regulation factor,"[3]; autoradiography, FIG. 6B",competes with insulin
NCCCC[C@H](N)C(=O)O [lysine],interaction (binding) with insulin secretion regulation factor ATIS1,[1],interacted with the insulin secretion regulation factor
NCCC[C@H](N)C(=O)O [ornithine],interaction (binding) with insulin secretion regulation factor ATIS1,[1],interacted with the insulin secretion regulation factor
